Here are results for four compounds from publication PMC11822212, “High-throughput screening identifies Aurora kinase B as a critical therapeutic target for Merkel cell carcinoma” (Nature Communications, 2025).

One test relates to MKL-2 cells (VP-MCC). The experiment in a line: qHTS cell viability (CellTiter-Glo, 72 h; primary and follow-up small molecule screen). It is filed as cell-based, human. On the technique in general: In qHTS, concentration-response curves come from the screen itself.
Test [1] relates to MCC cell lines (WAGA, MKL-1, MKL-2, MCC13, MCC26, UISO). The experiment in a line: qHTS cell viability, all six MCC cell lines as a group (mean AUC, MCC.avg). It is filed as cell-based, human.
The subject of another test is WAGA cells (VP-MCC). Briefly: qHTS cell viability (CellTiter-Glo, 72 h; primary and follow-up small molecule screen). It is filed as cell-based, human.
The test system of a further test is MCC13 cells (VN-MCC). Described as above. The test is classed as cell-based, human.
For another test, the system named is MCC26 cells (VN-MCC). Described as above. The test is classed as cell-based, human.
Test [2] relates to control cell lines (HACAT, HEK293T, CRL-7250, NIH-3T3). The experiment in a line: qHTS cell viability, control cell lines as a group (mean AUC, Control.avg). Conditions: mean AUC of control cell lines. It is filed as cell-based.
For test [3], the system named is VN-MCC cell lines (MCC13, MCC26, UISO). The experiment in a line: qHTS cell viability, VN-MCC cell lines as a group (mean AUC, VN.MCC.avg). The test is classed as cell-based, human. The note with it: for VN-MCC_Avg_AUC: mean AUC of VN-MCC cell lines.
For a further test, the system named is HEK293T cells. The experiment in a line: qHTS cell viability (CellTiter-Glo, 72 h; primary screen), control cell line. It is filed as cell-based, human.
The subject of the next test is CRL-7250 cells. The test is described as above. It is filed as cell-based.
In another test the test system is MKL-1 cells (VP-MCC). The experiment in a line: qHTS cell viability (CellTiter-Glo, 72 h; primary and follow-up small molecule screen). It is filed as cell-based, human.
For test [4], the system named is VP-MCC cell lines (WAGA, MKL-1, MKL-2). The experiment in a line: qHTS cell viability, VP-MCC cell lines as a group (mean AUC, VP.MCC.avg). It is filed as cell-based, human. Conditions: for VP-MCC_Avg_AUC: mean AUC of VP-MCC cell lines.
The test system of another test is HACAT cells. The experiment in a line: qHTS cell viability (CellTiter-Glo, 72 h; primary screen), control cell line. The test is classed as cell-based, human.
A further test relates to NIH-3T3 cells. Described as above. The test is classed as cell-based, mouse.
Another test has as its system UISO cells (VN-MCC). The experiment in a line: qHTS cell viability (CellTiter-Glo, 72 h; primary and follow-up small molecule screen). The test is classed as cell-based, human.
The subject of test [5] is six MCC cell lines and four control cell lines. Briefly: qHTS cell viability, all 10 cell lines screened. The test is classed as cell-based.
Where [6] appears, read: NPC library, qHTS dose-response AUC, MKL2.
Setting [7] is: NPC library, mean AUC of six MCC cell lines.
Where [8] appears, read: NPC library, qHTS dose-response AUC, WAGA.
The mark [9] stands for this setting: NPC library, qHTS dose-response AUC, MCC13.
Setting [10] is: NPC library, therapeutic window: Control avg AUC minus VN-MCC avg AUC.
Where [11] appears, read: NPC library; qHTS dose-response AUC, HEK293T control.
[12] abbreviates: NPC library, qHTS dose-response AUC, CRL7250 control.
Setting [13] is: NPC library, qHTS dose-response AUC, MKL1.
[14] abbreviates: NPC library, therapeutic window: Control avg AUC minus VP-MCC avg AUC.
Where [15] appears, read: NPC library, qHTS dose-response AUC, HACAT control.
Setting [16] is: NPC library, qHTS dose-response AUC, NIH3T3 control.
Setting [17] is: NPC library, qHTS dose-response AUC, UISO.
Where [18] appears, read: NPC library, therapeutic window: Control avg AUC minus MCC avg AUC.
[19] abbreviates: MIPE library, 11-point DRC, sheet S2E.
Setting [20] is: MIPE library, mean AUC of six MCC cell lines, sheet S2E.
The mark [21] stands for this setting: MIPE library, Control AUC minus VN-MCC AUC (therapeutic window), sheet S2E.
[22] abbreviates: MIPE library, 11-point DRC, control cell line, sheet S2E.
The mark [23] stands for this setting: MIPE library, Control AUC minus VP-MCC AUC (therapeutic window), sheet S2E.
The mark [24] stands for this setting: MIPE library, Control AUC minus MCC AUC (therapeutic window), sheet S2E.

SMILES strings stand for the structures.

`N=C(N)NN=C(/C=C/c1ccc([N+](=O)[O-])o1)/C=C/c1ccc([N+](=O)[O-])o1` [Nitrovin] came in with an MKL2_AUC in the test on MKL-2 cells (VP-MCC) (setting [6]) of 260.273. The MCC_Avg_AUC in [1] (setting [7]) was found to be 325.445. The compound further showed a WAGA_AUC in the test on WAGA cells (VP-MCC) (setting [8]) of 248.028. The same compound came in with an MCC13_AUC in the test on MCC13 cells (VN-MCC) (setting [9]) of 392.271. The compound also had an MCC26_AUC in the test with MCC26 cells (VN-MCC) (NPC library; qHTS dose-response AUC, MCC26) of 411.446. In [2] (NPC library), this compound came in with a Control_Avg_AUC of 370.412. Besides, in test [3] (NPC library), the VN-MCC_Avg_AUC is reported as 384.368. The Control-VN-MCC in [3] (setting [10]) is given as -13.9562. This compound had an HEK293T_AUC in the test with HEK293T cells (setting [11]) of 356.338. Further, the CRL7250_AUC in the test with CRL-7250 cells (setting [12]) worked out at 323.737. The compound further displayed an MKL1_AUC in the test on MKL-1 cells (VP-MCC) (setting [13]) of 291.263. In test [4] (NPC library), this compound returned a VP-MCC_Avg_AUC of 266.521. This compound also showed a Control-VP-MCC in test [4] (setting [14]) of 103.891. This compound also showed an HACAT_AUC in the test with HACAT cells (setting [15]) of 415.924. The compound also had an NIH3T3_AUC with NIH-3T3 cells (setting [16]) of 385.648. The compound further showed a UISO_AUC in the test on UISO cells (VN-MCC) (setting [17]) of 349.388. In test [5] (setting [18]), this compound displayed a Control-MCC of 44.9672.
Regarding `CCCCCCCCOc1ccccc1C(=O)Nc1ccc(C(=O)OCC[N+](C)(CC)CC)cc1` [Octylonium bromide], the MKL2_AUC with MKL-2 cells (VP-MCC) (setting [6]) turned out to be 359.851. For the same compound, the MCC_Avg_AUC in test [1] (NPC library, mean AUC of all 6 MCC cell lines) is recorded as 399.88; in test [1] (setting [7]), 399.88. In the test on WAGA cells (VP-MCC) (setting [8]), this compound had a WAGA_AUC of 419.958. For the same compound, the MCC13_AUC with MCC13 cells (VN-MCC) (setting [9]) amounted to 437.863. This compound also yielded an MCC26_AUC in the test with MCC26 cells (VN-MCC) (NPC library, qHTS dose-response AUC, MCC26) of 427.666. In addition, the Control_Avg_AUC in test [2] (NPC library) worked out at 464.883. Besides, the Control-VN-MCC in [3] (Control AUC minus VN-MCC AUC) and in test [3] (setting [10]) was 46.4688 in each case. Also, the VN-MCC_Avg_AUC in test [3] (NPC library) amounted to 418.414. The HEK293T_AUC is given as 439.212 in the test on HEK293T cells (NPC library, qHTS dose-response AUC, HEK293T control) and 439.213 with HEK293T cells (setting [11]). Besides, the CRL7250_AUC in the test with CRL-7250 cells (setting [12]) is listed as 483.471. Besides, the MKL1_AUC with MKL-1 cells (VP-MCC) (setting [13]) is 364.23. For the same compound, the Control-VP-MCC in [4] (Control AUC minus VP-MCC AUC) and in test [4] (setting [14]) was 83.5367 in each case. The VP-MCC_Avg_AUC in test [4] (NPC library) turned out to be 381.346. The same compound gave an HACAT_AUC with HACAT cells (setting [15]) of 466.719. The NIH3T3_AUC in the test on NIH-3T3 cells (setting [16]) is 470.129. Besides, the UISO_AUC in the test with UISO cells (VN-MCC) (setting [17]) is reported as 389.713. This compound gave a Control-MCC in test [5] (setting [18]) of 65.0028.
`Cc1[nH]c(/C=C2\C(=O)Nc3ccccc32)c(C)c1CCC(=O)O` [Orantinib] returned an MKL2_AUC in the test on MKL-2 cells (VP-MCC) (setting [19]) of 325.675. This compound returned an MCC_Avg_AUC in test [1] (setting [20]) of 343.492. In the test with WAGA cells (VP-MCC) (setting [19]), this compound displayed a WAGA_AUC of 255.586. The compound also gave an MCC13_AUC in the test with MCC13 cells (VN-MCC) (setting [19]) of 429.293. The MCC26_AUC in the test with MCC26 cells (VN-MCC) (setting [19]) stood at 450.485. In addition, the Control_Avg_AUC in test [2] (MIPE library, sheet S2E) was 403.759. Moreover, the Control-VN-MCC in test [3] (setting [21]) was 1.813. For the same compound, the VN-MCC_Avg_AUC in test [3] (MIPE library, sheet S2E) stood at 401.946. Also, in the test with HEK293T cells (setting [22]), the HEK293T_AUC was 367.406. For the same compound, the CRL7250_AUC in the test with CRL-7250 cells (setting [22]) was 403.945. The same compound showed an MKL1_AUC in the test with MKL-1 cells (VP-MCC) (setting [19]) of 273.854. In [4] (setting [23]), the Control-VP-MCC was determined as 118.721. The VP-MCC_Avg_AUC in [4] (MIPE library, sheet S2E) is on record as 285.038. Also, the HACAT_AUC in the test with HACAT cells (setting [22]) amounted to 472.413. For the same compound, in the test on NIH-3T3 cells (setting [22]), the NIH3T3_AUC was determined as 371.272. In the test on UISO cells (VN-MCC) (setting [19]), this compound registered a UISO_AUC of 326.059. The Control-MCC in test [5] (setting [24]) is given as 60.2668.
`C=C1C(=O)[C@]23[C@H](O)[C@H]1CC[C@H]2[C@@]12CO[C@]3(O)[C@@H](O)[C@@H]1C(C)(C)CC[C@@H]2O` [Oridonin]: in the test with MKL-2 cells (VP-MCC) (setting [19]), the MKL2_AUC was found to be 318.538. In test [1] (setting [20]), this compound registered an MCC_Avg_AUC of 389.297. The compound further registered a WAGA_AUC with WAGA cells (VP-MCC) (setting [19]) of 351.193. In the test with MCC13 cells (VN-MCC) (setting [19]), this compound yielded an MCC13_AUC of 444.187. In the test on MCC26 cells (VN-MCC) (setting [19]), this compound yielded an MCC26_AUC of 486.711. Moreover, the Control_Avg_AUC in [2] (MIPE library, sheet S2E) was found to be 422.25. In [3] (setting [21]), the Control-VN-MCC is given as -13.4189. The compound further showed a VN-MCC_Avg_AUC in test [3] (MIPE library, sheet S2E) of 435.669. The HEK293T_AUC in the test with HEK293T cells (setting [22]) was found to be 399.439. This compound came in with a CRL7250_AUC in the test on CRL-7250 cells (setting [22]) of 432.105. The compound also had an MKL1_AUC in the test with MKL-1 cells (VP-MCC) (setting [19]) of 359.043. In addition, the Control-VP-MCC in test [4] (setting [23]) was 79.3252. Moreover, the VP-MCC_Avg_AUC in [4] (MIPE library, sheet S2E) worked out at 342.925. In addition, in the test on HACAT cells (setting [22]), the HACAT_AUC is on record as 442.799. In addition, in the test with NIH-3T3 cells (setting [22]), the NIH3T3_AUC is recorded as 414.657. Further, the UISO_AUC in the test with UISO cells (VN-MCC) (setting [19]) came to 376.109. The compound also came in with a Control-MCC in test [5] (setting [24]) of 32.9531.
